Assay results: US8754040B2, “Cyclic peptide compound, method for producing same, anti-infective agent, antibiotic-containing fraction, antibiotic, method for producing antibiotic, antibiotic-producing microorganism, and antibiotic produced by same” (priority 2010, dated 2014)
In brackets after ≈: the same amount, converted by molar mass. Positions of bridges follow the written chain, without caps; N, C: chain ends. Non-standard residues stand in square brackets, D forms with d. Residues, ends and D or L forms follow the SMILES beside them. *: point of attachment. Hexanoyl(3-OH,5-Me) = CC(C)CC(O)CC(=O)*; dNMeF = CN[C@H](Cc1ccccc1)C(=O)O

Experiments:
[1] = system: Staphylococcus aureus (MRSA3)
From the text: (§1) Antibacterial activity of the antibiotic-substance-containing fraction at each fractionation stage from a culture produced from RH2180-5 and that of the antibiotic substance obtained therefrom by separation and purification thereof can be evaluated by MIC. […] For example, it is done with a broth microdilution method based on CLSI (formerly NCCLS: National Committee for Clinical Laboratory Standards).
(§2) Antibacterial spectrum of the RH2180-5 Peak 5 Substance to various bacteria including MRSA and VRE was studied. In addition, influence of chemical resistance was also studied. For study of the latter, Staphylococcus aureus and Enterococcus faecalis were selected, wherein measurement of MIC value of each peak substance was made by a broth microdilution method based on CLSI (formerly NCCLS: National Committee for Clinical Laboratory Standards) as to Staphylococcus aureus not showing resistance to a chemical (hereinafter abbreviated as “MSSA 1”) and two kinds of MRSA showing resistance to many chemicals including methicillin (MRSA 3 and MRSA 4; see Table 3 for resistive chemicals) for Staphylococcus aureus; and as to Enterococcus faecalis not showing resistance to a chemical (hereinafter abbreviated as “EF 1”) and showing resistance to vancomycin (hereinafter abbreviated as “VRE”) for Enterococcus faecalis.
(§3) Test microorganisms of Staphylococcus aureus and Enterococcus faecalis, the same as Test Example 1, were selected; and measurement of MIC value of each peak substance was made by a broth microdilution method based on CLSI (formerly NCCLS: National Committee for Clinical Laboratory Standards) as to MSSA 1 and EF 1, and MRSA 3, MRSA 4, and VRE, the same as Test Example 1.
(§4) Antibacterial spectrum of the foregoing RH2180-5 Peak 5 Substance to various microorganisms including MRSA and VRE was studied. Each MIC value for the case added with 10% blood serum and for the case not added with the same was measured by a broth microdilution method based on CLSI (formerly NCCLS: National Committee for Clinical Laboratory Standards).

[2] = system: Staphylococcus aureus (MSSA1); details: MSSA1
From the text: as §1, §2, §3, §4

[3] = system: Enterococcus faecalis (EF1)
From the text: as §1, §2, §3, §4

[4] = system: Staphylococcus aureus (MRSA4)
From the text: as §1, §2, §3, §4

[5] = system: Enterococcus faecalis (VRE)
From the text: as §1, §2, §3, §4

Staphylococcus aureus [6] = test: silkworm Staphylococcus aureus infection model (therapeutic effect); format: in vivo, silkworm (larva of Bombyx mori); details: purification stages, Table 2
From the text: In the present invention too, a first screening to narrow down effective strains from several tens of thousands of extraordinary large numbers of strains may be done by any method as far as the antibacterial activity can be evaluated with the said method; and thus, for example, by referring to MIC, test bodies showing the antibacterial activity to Staphylococcus aureus in culture supernatant of each strain may be picked up. This is because strains not showing the antibacterial activity at all are not in the scope of examination. Any method capable of evaluating the antibacterial activity may be used; but a method with which a strain recognized to show, with referring to MIC, the antibacterial activity to Staphylococcus aureus in culture supernatant of various test strains is picked up is preferable. […]
Strains recognized to show the therapeutic effect in the silkworm Staphylococcus aureus infection model are further subjected to various separation and purification treatments wherein the therapeutic effect is evaluated in each operation by using the silkworm Staphylococcus aureus infection model. […]

Staphylococcus aureus [7] = format: cell-based
Experimental: A soil taken from various places was suspended in a physiological saline solution, and then the supernatant thereof was applied on a GA medium and a HV medium; and after incubation at 30° C., grown bacteria was separated and then cultured in an YME medium, a SGM medium, or a CDY medium at 30° C. for 5 days. Equal amount of acetone was added thereinto; and after they were suspended and centrifugally separated, the resulting supernatant was evaporated. The residue thus resulted was diluted with a physiological saline solution, and then the antibacterial activity thereof to Staphylococcus aureus was evaluated by MIC with a broth microdilution method. As a result, antibacterial activity was found in culture supernatant of 3487 strains out of 14346 strains.

Staphylococcus aureus [8] = test: survived cell numbers (CFU) of Staphylococcus aureus after drug addition; format: cell-based
Experimental: To CA-Mueller Hinton Broth medium were taken 1.8×10^8 Staphylococcus aureus, and then the foregoing RH2180-5 Peak 5 Substance (25 μg/mL), vancomycin (VM, 5 μg/mL), and gentamicin (GM, 2.5 μg/mL) were added thereinto; and then, survived cell numbers after 15 minutes, 30 minutes, 60 minutes, and 120 minutes were obtained as CFU (colony forming unit/mL).

[9] = system: Smith strain of Staphylococcus aureus; test: mouse Staphylococcus aureus infection model (therapeutic effect); format: in vivo, mouse (ICR female); details: Staphylococcus aureus, ip
Experimental: Smith strain of Staphylococcus aureus was suspended in 7% mucin+0.2 mM ferric ammonium citrate, and 6.2×10^6 (20×LD50) thereof was administered into the peritoneal cavity of 5 mice per group (ICR female of four weeks of age). Each drug was injected hypodermically 2 hours after administration of the bacterium by the method shown below.
Similarly, ED50 of vancomycin to the mouse model used this time was studied. […] Here, ED50 values were obtained by the probit method.

| Compound | MIC [1] [µg/mL] | MIC [2] [µg/mL] | MIC [3] [µg/mL] | MIC [4] [µg/mL] | MIC [5] [µg/mL] | also measured |
| --- | --- | --- | --- | --- | --- | --- |
| CC[C@H](C)[C@@H]1NC(=O)[C@@H](Cc2c[nH]c3ccccc23)NC(=O)[C@@H](CCC(N)=O)NC(=O)[C@H](CCC(=O)O)NC(=O)[C@@H](CCCNC(=N)N)NC(=O)[C@H](CC(C)C)NC(=O)[C@@H](Cc2ccccc2)NC(=O)CNC(=O)[C@H](CO)NC(=O)[C@@H](CCCNC(=N)N)NC(=O)[C@@H](NC(=O)CC(O)CCCC(C)C)[C@@H](C)OC(=O)[C@H]([C@@H](C)O)NC1=O (single isomer, unassigned) [Peak P3] | 25 (≈ 15.3 µM) | 25 (≈ 15.3 µM) | 50 (≈ 30.6 µM) | 25 (≈ 15.3 µM) | 50 (≈ 30.6 µM) |  |
| CC[C@H](C)[C@@H]1NC(=O)[C@@H](Cc2c[nH]c3ccccc23)NC(=O)[C@@H](CCC(N)=O)NC(=O)[C@H](CCC(=O)O)NC(=O)[C@@H](CCCNC(=N)N)NC(=O)[C@H](CC(C)C)NC(=O)[C@@H](Cc2ccccc2)NC(=O)CNC(=O)[C@H](CO)NC(=O)[C@@H](CCCNC(=N)N)NC(=O)[C@@H](NC(=O)CC(O)CCCC(C)C)[C@@H](C)OC(=O)[C@H]([C@@H](C)O)NC1=O (single isomer, unassigned) [Peak P4] | 25.0 (≈ 15.3 µM) | 12.5 (≈ 7.66 µM) | 50 (≈ 30.6 µM) | 12.5 (≈ 7.66 µM) | 25 (≈ 15.3 µM) |  |
| CC[C@H](C)[C@@H]1NC(=O)[C@@H](Cc2c[nH]c3ccccc23)NC(=O)[C@@H](CCC(N)=O)NC(=O)[C@H](CCC(=O)O)NC(=O)[C@@H](CCCNC(=N)N)NC(=O)[C@H](CC(C)C)NC(=O)[C@@H](Cc2ccccc2)N(C)C(=O)CNC(=O)[C@H](CO)NC(=O)[C@@H](CCCNC(=N)N)NC(=O)[C@@H](NC(=O)CC(O)CCC(C)C)[C@@H](C)OC(=O)[C@H]([C@@H](C)O)NC1=O (single isomer, unassigned) [Peak P7] | 12.5 (≈ 7.66 µM) | 12.5 (≈ 7.66 µM) | 50 (≈ 30.6 µM) | 12.5 (≈ 7.66 µM) | 25 (≈ 15.3 µM) |  |
| CC[C@H](C)[C@@H]1NC(=O)[C@@H](Cc2c[nH]c3ccccc23)NC(=O)[C@@H](CCC(N)=O)NC(=O)[C@H](CCC(=O)O)NC(=O)[C@@H](CCCNC(=N)N)NC(=O)[C@H](CC(C)C)NC(=O)[C@@H](Cc2ccccc2)N(C)C(=O)CNC(=O)[C@H](CO)NC(=O)[C@@H](CCCNC(=N)N)NC(=O)[C@@H](NC(=O)CC(O)CCCC(C)C)[C@@H](C)OC(=O)[C@H]([C@@H](C)O)NC1=O (single isomer, unassigned) [Peak P8] | 12.5 (≈ 7.59 µM) | 12.5 (≈ 7.59 µM) | 50 (≈ 30.4 µM) | 12.5 (≈ 7.59 µM) | 25 (≈ 15.2 µM) |  |
| CC[C@H](C)[C@@H]1NC(=O)[C@@H](Cc2c[nH]c3ccccc23)NC(=O)[C@@H](CCC(N)=O)NC(=O)[C@H](CCC(=O)O)NC(=O)[C@@H](CCCNC(=N)N)NC(=O)[C@H](CC(C)C)NC(=O)[C@@H](Cc2ccccc2)N(C)C(=O)CNC(=O)[C@H](CO)NC(=O)[C@@H](CCCNC(=N)N)NC(=O)[C@@H](NC(=O)CC(O)CCCC(C)C)[C@@H](C)OC(=O)[C@H]([C@@H](C)O)NC1=O (single isomer, unassigned) [Peak P9] |  |  | 12.5 (≈ 7.59 µM) |  | 12.5 (≈ 7.59 µM) | ED50 (Staphylococcus aureus [6]): 0.3 μg/g-larva; MIC (Staphylococcus aureus [7]): 5 µg/mL (≈ 3.04 µM) |
| CC(C)CC(O)CC(=O)N[C@@H]1C(=O)N[C@H](CCCNC(=N)N)C(=O)N[C@@H](CO)C(=O)NCC(=O)N(C)[C@H](Cc2ccccc2)C(=O)N[C@@H](CC(C)C)C(=O)N[C@H](CCCNC(=N)N)C(=O)N[C@@H](CCC(=O)O)C(=O)N[C@H](CCC(N)=O)C(=O)N[C@H](Cc2c[nH]c3ccccc23)C(=O)N[C@@H](C(C)C)C(=O)N[C@@H]([C@@H](C)O)C(=O)O[C@@H]1C (stereo partly drawn) [Peak P2] ({Hexanoyl(3-OH,5-Me)}-T[dR]SG[dNMeF]L[dR]E[dQ][dW]VT; ester 1-C) | 12.5 (≈ 7.79 µM) | 12.5 (≈ 7.79 µM) | 50 (≈ 31.2 µM) | 6.3 (≈ 3.93 µM) | 50 (≈ 31.2 µM) |  |
| CN[C@H](CC(C)C)C(=O)N[C@H]1C(=O)N[C@@H](CC(N)=O)C(=O)N[C@H]2C(=O)N[C@H]3C(=O)N[C@H](C(=O)N[C@H](C(=O)O)c4cc(O)cc(O)c4-c4cc3ccc4O)[C@H](O)c3ccc(c(Cl)c3)Oc3cc2cc(c3O[C@@H]2O[C@H](CO)[C@@H](O)[C@H](O)[C@H]2O[C@H]2C[C@](C)(N)[C@H](O)[C@H](C)O2)Oc2ccc(cc2Cl)[C@H]1O [Vancomycin] |  |  |  |  |  | CFU/ml of S. aureus (Staphylococcus aureus [8]; 5 μg/ml, 15 minutes): 8.5 × 10^7 CFU/ml; CFU/ml of S. aureus (Staphylococcus aureus [8]; 5 μg/ml, 30 minutes): 4.9 × 10^7 CFU/ml; CFU/ml of S. aureus (Staphylococcus aureus [8]; 5 μg/ml, 60 minutes): 6.8 × 10^7 CFU/ml; CFU/ml of S. aureus (Staphylococcus aureus [8]; 5 μg/ml, 120 minutes): 3.4 × 10^7 CFU/ml; ED50 [9]: 1.6 mg/kg |
| Gentamicin [GM] |  |  |  |  |  | CFU/ml of S. aureus (Staphylococcus aureus [8]; 2.5 μg/ml, 15 minutes): 2.6 × 10^7 CFU/ml; CFU/ml of S. aureus (Staphylococcus aureus [8]; 2.5 μg/ml, 30 minutes): 7.6 × 10^5 CFU/ml; CFU/ml of S. aureus (Staphylococcus aureus [8]; 2.5 μg/ml, 60 minutes): 1.6 × 10^5 CFU/ml; CFU/ml of S. aureus (Staphylococcus aureus [8]; 2.5 μg/ml, 120 minutes): 4.0 × 10^5 CFU/ml |
